Calls of active or inactive are those of the source. The calls are words filed in the database; no cut-off is given here.
Experiments:
DCN1-like protein 1 [1] = target: T1, DCN1-like protein 1 (Homo sapiens, UniProt Q96GG9); experiment: Inhibition of GST-tagged DCN1 (unknown origin) using AcUBE2M1-21 incubated for 30 mins by HTRF assay
Target sequence in this assay (Q96GG9 whole entry): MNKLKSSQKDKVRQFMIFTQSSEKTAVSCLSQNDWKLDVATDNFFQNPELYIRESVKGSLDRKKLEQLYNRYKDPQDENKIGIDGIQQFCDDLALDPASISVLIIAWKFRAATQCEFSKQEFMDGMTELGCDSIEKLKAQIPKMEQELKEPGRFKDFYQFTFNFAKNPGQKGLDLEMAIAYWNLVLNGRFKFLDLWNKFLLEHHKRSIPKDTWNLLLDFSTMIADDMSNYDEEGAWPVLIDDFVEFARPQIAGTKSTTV

[2] = Cytotoxicity against Sprague-Dawley rat cardiac fibroblast by MTT assay; type: toxicity, cell-based, Fibroblast of cardiac tissue; settings: cardiac fibroblasts
DCN1-like protein 1 [3] = target: T1, DCN1-like protein 1
Target sequence in this assay (Q96GG9 whole entry, looked up): as the sequence (Q96GG9 whole entry) above
Description: Binding affinity to DCN1 (unknown origin) assessed as change in entropy by MM-PBSA method

DCN1-like protein 1 [4] = target: T1, DCN1-like protein 1; remark: listed apart in the source
Target sequence in this assay (Q96GG9 whole entry, looked up): as the sequence (Q96GG9 whole entry) above
Description: Binding affinity to DCN1 (unknown origin) assessed as Gibbs free energy change by MM-PBSA method

[5] = tested on: Fibroblast of cardiac tissue; experiment: Antifibrotic effect in SD rat cardiac fibroblast assessed as reduction in Ang II-induced collagen I upregulation preincubated for 2 hrs followed by Ang II-stimulation and further incubated for 24 hrs by western blot analysis (reference value: 71 %); type: functional; settings: time 26.0 hrs
[6] = tested on: Fibroblast of cardiac tissue; experiment: Antifibrotic effect in SD rat cardiac fibroblast assessed as reduction in Ang II-induced activation of Nrf2 signaling pathway preincubated for 2 hrs followed by Ang II-stimulation and further incubated for 24 hrs by western blot analysis (reference value: 43 %); type: functional; settings: time 26.0 hrs
DCN1-like protein 5 = target: T2, DCN1-like protein 5 (Homo sapiens, UniProt Q9BTE7); experiment: Binding affinity to DCN5 (unknown origin) assessed as inhibitory constant
T2 sequence (Q9BTE7 whole entry): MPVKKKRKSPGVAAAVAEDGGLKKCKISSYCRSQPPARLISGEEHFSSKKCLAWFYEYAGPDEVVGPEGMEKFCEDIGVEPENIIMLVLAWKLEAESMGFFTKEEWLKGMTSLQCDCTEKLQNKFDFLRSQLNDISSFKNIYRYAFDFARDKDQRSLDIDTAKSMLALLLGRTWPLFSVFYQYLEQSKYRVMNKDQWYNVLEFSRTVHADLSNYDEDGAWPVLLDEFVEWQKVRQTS

DCN1-like protein 2 = DCN1-like protein 2 (Homo sapiens, UniProt Q6PH85); experiment: Binding affinity to DCN2 (unknown origin) assessed as inhibitory constant
Sequence of DCN1-like protein 2 (Q6PH85 whole entry): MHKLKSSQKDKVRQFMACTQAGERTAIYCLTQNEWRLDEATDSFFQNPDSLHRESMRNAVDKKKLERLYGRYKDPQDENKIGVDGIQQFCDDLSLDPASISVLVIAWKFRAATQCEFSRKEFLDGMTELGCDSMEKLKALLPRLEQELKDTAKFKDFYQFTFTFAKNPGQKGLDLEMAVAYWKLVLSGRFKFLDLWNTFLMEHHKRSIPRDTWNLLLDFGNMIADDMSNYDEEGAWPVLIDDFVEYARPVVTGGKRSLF

Cardiac fibroblast = experiment: Inhibition of DCN1 in Sprague-Dawley rat cardiac fibroblast assessed as suppression in DCN1-UBC12 interaction by measuring reduction in UBC12 level at 10 uM incubated for 5 hrs co-incubated with DCN1 antibody by co-immunoprecipitation pull down assay; type: cell-based
DCN1-like protein 3 = target: T3, DCN1-like protein 3 (Homo sapiens, UniProt Q8IWE4); experiment: Binding affinity to DCN3 (unknown origin) assessed as inhibitory constant
T3 sequence (Q8IWE4 whole entry): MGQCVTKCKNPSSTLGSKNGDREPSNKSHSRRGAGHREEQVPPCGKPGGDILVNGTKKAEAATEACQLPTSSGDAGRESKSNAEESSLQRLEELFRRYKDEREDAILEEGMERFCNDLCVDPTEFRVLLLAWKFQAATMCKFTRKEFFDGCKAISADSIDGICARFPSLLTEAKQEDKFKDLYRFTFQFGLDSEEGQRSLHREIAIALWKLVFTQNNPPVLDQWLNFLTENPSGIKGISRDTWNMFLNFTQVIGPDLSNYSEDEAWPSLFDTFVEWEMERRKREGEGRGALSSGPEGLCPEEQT

| Structure (SMILES) | IC50 (DCN1-like protein 1 [1]) [nM] | other results |
| --- | --- | --- |
| COc1cc(-c2nc(SCc3nc4ccccc4[nH]3)nc(Sc3nccs3)c2C#N)cc(OC)c1OC | 814 |  |
| Cc1ccc(CSc2nc(Sc3nccs3)c(C#N)c(-c3c[nH]c4ccccc34)n2)cc1 | > 10000 |  |
| COc1cc(-c2nc(SCc3ccncc3)nc(Sc3nccs3)c2C#N)cc(OC)c1OC | 653 |  |
| COc1cc(-c2nc(SCc3ccc(Cl)cc3)nc(Sc3nccs3)c2C#N)cc(OC)c1OC | 24.7 |  |
| COc1cc(-c2nc(SCc3ccccc3)nc(NC(C)(C)N3CCOCC3)c2C#N)cc(OC)c1OC | > 10000 |  |
| COc1ccc(CNc2nc(Sc3nnnn3C)cc(-c3cc(OC)c(OC)c(OC)c3)n2)cc1 | 4130 |  |
| COc1ccc(CSc2nc(Sc3nccs3)c(C#N)c(-c3cc(OC)c(OC)c(OC)c3)n2)cc1 | 2570 |  |
| COc1cc(-c2nc(SCc3ccc(C)cc3)nc(Sc3nnnn3C)c2C#N)cc(OC)c1OC | 2.86 | IC50 [2]: 9970 nM |
| COc1cc(-c2nc(SCc3c(C)noc3C)nc(Sc3nccs3)c2C#N)cc(OC)c1OC | 412 |  |
| COc1cc(-c2nc(SCc3ccc(Cl)cc3)nc(Sc3nnnn3CCN(C)C)c2C#N)cc(OC)c1OC | 25.3 |  |
| COc1ccc(-c2nc(SCc3ccc(C)cc3)nc(Sc3nccs3)c2C#N)cc1 | 21.2 |  |
| COc1cc(-c2nc(SCc3cccc(C(F)(F)F)c3)nc(Sc3nnnn3C)c2C#N)cc(OC)c1OC | 25.8 |  |
| COC(=O)c1ccc(CSc2nc(Sc3nccs3)c(C#N)c(-c3cc(OC)c(OC)c(OC)c3)n2)cc1 | 5.36 |  |
| COc1cc(-c2nc(SCc3ccc(C)cc3)nc(Sc3nnnn3CCN(C)C)c2C#N)cc(OC)c1OC | 9.37 | IC50 [2]: 26000 nM |
| Cc1ccc(CSc2nc(Sc3nccs3)c(C#N)c(-c3ccc(C)cc3)n2)cc1 | 20.9 |  |
| CCCSc1nc(Sc2nccs2)c(C#N)c(-c2cc(OC)c(OC)c(OC)c2)n1 | 258 |  |
| COc1cc(-c2nc(SCc3ccccc3)nc(Sc3nccs3)c2C#N)cc(OC)c1OC | 28.2 |  |
| COc1ccc(Nc2nc(SCc3ccccc3)nc(-c3cc(OC)c(OC)c(OC)c3)c2C#N)cc1 | > 10000 |  |
| COc1cc(-c2nc(SCCc3ccccc3)nc(Sc3nccs3)c2C#N)cc(OC)c1OC | 2570 |  |
| COc1cc(-c2nc(SCc3ccccc3C)nc(Sc3nccs3)c2C#N)cc(OC)c1OC | 890 |  |

| Structure (SMILES) | IC50 (DCN1-like protein 1 [1]) [nM] | other results |
| --- | --- | --- |
| COc1cc(-c2nc(SCc3ccccc3)nc(Sc3nnnn3CCN(C)C)c2C#N)cc(OC)c1OC | 28.1 |  |
| COc1cc(-c2nc(SCc3ccccc3)nc(NCc3nccs3)c2C#N)cc(OC)c1OC | > 10000 |  |
| COc1cc(-c2nc(SCc3cccc(C)c3)nc(Sc3nccs3)c2C#N)cc(OC)c1OC | 5.48 | IC50 [2]: 15600 nM |
| COc1cc(-c2nc(SCC(=O)NC(=O)Nc3ccccc3)nc(Sc3nccs3)c2C#N)cc(OC)c1OC | 6180 |  |
| COc1cc(-c2nc(SCC(=O)Nc3ccccc3)nc(Sc3nccs3)c2C#N)cc(OC)c1OC | 8010 |  |
| COc1ccc(CSc2nc(Sc3nnnn3C)c(C#N)c(-c3cc(OC)c(OC)c(OC)c3)n2)cc1 | 31.2 |  |
| Cc1ccc(CSc2nc(Sc3nccs3)c(C#N)c(-c3ccc(Cl)cc3)n2)cc1 | 65.9 |  |
| COc1cc(-c2nc(SCc3ccc(C(F)(F)F)cc3)nc(Sc3nccs3)c2C#N)cc(OC)c1OC | 100 |  |
| COc1cc(-c2nc(SCc3ccc(C(F)(F)F)cc3)nc(Sc3nnnn3C)c2C#N)cc(OC)c1OC | 29.1 |  |
| C#CCSc1nc(Sc2nnnn2C)c(C#N)c(-c2cc(OC)c(OC)c(OC)c2)n1 | 0.25 | -TdeltaS (DCN1-like protein 1 [3]): 10.8 kcal/mol; deltaG (DCN1-like protein 1 [4]): -10.3 kcal/mol |
| C=CCSc1nc(Sc2nccs2)c(C#N)c(-c2cc(OC)c(OC)c(OC)c2)n1 | 36.9 |  |
| COc1cc(-c2nc(SCc3ccc(C(C)(C)C)cc3)nc(Sc3nccs3)c2C#N)cc(OC)c1OC | 11.5 |  |
| COc1cc(-c2nc(SCc3ccccc3)nc(Nc3cccc(Cl)c3)c2C#N)cc(OC)c1OC | 2390 |  |
| Cc1ccc(CSc2nc(Sc3nccs3)c(C#N)c(-c3ccccc3)n2)cc1 | 2790 |  |
| COc1cc(-c2nc(SCc3ccoc3C(F)(F)F)nc(Sc3nccs3)c2C#N)cc(OC)c1OC | 450 |  |
| COc1cc(-c2nc(SCc3cccc(C)c3)nc(Sc3nnnn3C)c2C#N)cc(OC)c1OC | 11.1 |  |
| COc1cc(-c2nc(SCc3ccccc3)nc(Sc3nc(C)cs3)c2C#N)cc(OC)c1OC | 41.1 |  |
| COc1cc(-c2nc(SCc3ccc4ccccc4c3)nc(Sc3nccs3)c2C#N)cc(OC)c1OC | 36.4 | IC50 [2]: 22900 nM |
| COc1cc(-c2nc(SCc3ccccc3)nc(Nc3ccc(O)c(Cl)c3)c2C#N)cc(OC)c1OC | > 10000 |  |
| COc1cc(-c2nc(SCc3ccccc3)nc(Sc3nnnn3C)c2C#N)cc(OC)c1OC | 36.4 |  |

| Structure (SMILES) | IC50 (DCN1-like protein 1 [1]) [nM] | other results |
| --- | --- | --- |
| Cc1ccc(CSc2nc(Sc3nccs3)c(C#N)c(-c3cccc(C)c3)n2)cc1 | 1690 |  |
| Cc1ccc(CSc2nc(Sc3nccs3)c(C#N)c(-c3cccs3)n2)cc1 | > 10000 |  |
| COc1cc(-c2nc(SCc3ccc4ccccc4c3)nc(Sc3nnnn3CCN(C)C)c2C#N)cc(OC)c1OC | 2.25 | IC50 [2]: 25800 nM |
| COc1cc(-c2nc(SCc3cccc(C(F)(F)F)c3)nc(Sc3nccs3)c2C#N)cc(OC)c1OC | 29.3 |  |
| COc1cc(-c2nc(SCc3cccc(C)c3)nc(Sc3nnnn3CCN(C)C)c2C#N)cc(OC)c1OC | 12.4 |  |
| Cc1ccc(CSc2nc(Sc3nccs3)c(C#N)c(-c3ccc(Oc4ccccc4)cc3)n2)cc1 | 1020 |  |
| COc1cc(-c2nc(SCc3ccc4ccccc4c3)nc(Sc3nnnn3C)c2C#N)cc(OC)c1OC | 6.15 | IC50 [2]: 18900 nM |
| COc1cc(-c2nc(SCc3cccc(C(F)(F)F)c3)nc(Sc3nnnn3CCN(C)C)c2C#N)cc(OC)c1OC | 12.2 |  |
| COc1ccc(-c2nc(SCc3ccc(C)cc3)nc(Sc3nccs3)c2C#N)cc1OC | 17.1 |  |
| COc1cc(-c2nc(SCc3ccccc3)nc(Sc3nc(C)c(C)s3)c2C#N)cc(OC)c1OC | > 10000 |  |
| COc1cc(-c2nc(SCc3ccc(C(C)(C)C)cc3)nc(Sc3nnnn3C)c2C#N)cc(OC)c1OC | 1220 |  |
| COc1cc(-c2nc(SCC3CCCCC3)nc(Sc3nccs3)c2C#N)cc(OC)c1OC | 611 |  |
| COc1cc(-c2nc(SCc3ccc(C(F)(F)F)cc3)nc(Sc3nnnn3CCN(C)C)c2C#N)cc(OC)c1OC | 60.5 |  |
| COc1cc(-c2nc(SCc3ccc(C)cc3)nc(Sc3nccs3)c2C#N)cc(OC)c1OC | 42.2 | IC50 [2]: 6150 nM |
| COc1ccc(CSc2nc(Sc3nnnn3CCN(C)C)c(C#N)c(-c3cc(OC)c(OC)c(OC)c3)n2)cc1 | 13.4 |  |
| COc1cc(-c2cc(Sc3nnnn3C)nc(SCc3ccc(Cl)cc3)n2)cc(OC)c1OC | 9620 | -TdeltaS (DCN1-like protein 1 [3]): 10.6 kcal/mol; inhibition [5]: inactive; inhibition [6]: inactive; deltaG (DCN1-like protein 1 [4]): -7.12 kcal/mol |
| Cc1ccc(CSc2nc(Sc3nccs3)c(C#N)c(-c3ccc(Br)cc3)n2)cc1 | 27.9 |  |
| C#CCSc1nc(Sc2nccs2)c(C#N)c(-c2ccc(C)cc2)n1 | 18.3 | Ki (DCN1-like protein 5): 2140 nM; IC50 [2]: 12600 nM; Ki (DCN1-like protein 2): 66200 nM; inhibition (Cardiac fibroblast): Dose-Dependent Effect; Ki (DCN1-like protein 3): 592000 nM |
| Cc1ccc(CSc2nc(Sc3nccs3)c(C#N)c(-c3ccccc3C)n2)cc1 | 463 |  |
| COc1cc(-c2nc(SCc3ccccc3)nc(Nc3ccc(Cl)cc3)c2C#N)cc(OC)c1OC | > 10000 |  |

Reference: ChEMBL document CHEMBL5042502, “Discovery of Potent and Selective 2-(Benzylthio)pyrimidine-based DCN1-UBC12 Inhibitors for Anticardiac Fibrotic Effects” (J Med Chem, 2022)
